Experimental data from patent publication US20060281722A1, “Compounds and uses thereof” (priority 2005, published 2006).

Test system: Tumor Necrosis Factor alpha (TNFα)
Assay: Lipopolysaccharide (LPS)-induced serum TNFα in rats (oral dosing 2 h before LPS, serum ELISA)
Assay type: in vivo
Design: unit not given here
Settings: LPS 0.01 mg/Kg intraperitoneal, male Lewis rats
Experimental: The purpose of this study was to examine the ability of compound 1 to suppress lipopolysaccharide (LPS)-induced Tumor Necrosis Factor alpha (TNFα) levels when administered to male Lewis rats.
Compound 1 was added directly to 100% ethanol. The suspension was vortexed vigorously until all of compound 1 was completely dissolved or fully suspended. The solution was made up to volume in 0.5% methylcellulose. The final concentration of ethanol was 10%.
At time minus 2 hours, rats were administered the appropriate amount of prednisolone and/or compound 1 via oral gavage in a dose volume of 0.25 mL. Untreated control and LPS Control animals received 0.25 mL of the vehicle only.
LPS was prepared at a 100X concentration by resuspension in Phosphate Buffered Saline (PBS). The LPS solution was vortexed vigorously to ensure complete suspension of the LPS. Immediately prior to injection, the LPS was serial diluted in PBS to a 1× working solution.
At time 0, animals were injected via the intraperitoneal route with 1.0 mL of the 1×LPS working solution (final LPS dose is 0.01 mg/Kg body weight) using a 25 gauge needle. Vehicle control animals received 1 mL of PBS.
Blood was expelled into a serum separator tube containing Clot Activator (Becton Dickinson, Franklin Lakes, N.J.). Samples were allowed to sit at room temperature for 30 min prior to spinning at 2000 rpm for 10 min in a bench top centrifuge at room temperature. Serum was transferred to an Eppendorf tube and immediately assayed for TNFα or stored at −80° C. until assayed.
Serum samples were assayed using the BioSource Rat TNFα ELISA kit according to the manufacturer's instructions.
Evaluation of the results included statistical analysis of differences in serum TNFα between treatment and control groups. Group means were compared using a one-way ANOVA. If the ANOVA was significant, p≦0.05, a multiple comparison test (Tukey-Kramer) was used to determine which groups were different.

SMILES	Serum TNFα ± Standard Error (0.3 mg/kg compound 1, oral gavage at minus 2 hours)	Serum TNFα ± Standard Error (1 mg/kg compound 1, oral gavage at minus 2 hours)	Serum TNFα ± Standard Error (3 mg/kg compound 1, oral gavage at minus 2 hours)	Serum TNFα ± Standard Error (0.3 mg/kg prednisolone, oral gavage at minus 2 hours)	Serum TNFα ± Standard Error (10 mg/kg prednisolone, oral gavage at minus 2 hours)
Clc1ccc2c(c1)C(N1CCN(CCN3CCOCC3)CC1)=Nc1ccccc1O2 [compound1]	13675.6 ± 7606.9	12769.1 ± 5231.2	12980.4 ± 6788.4	–	–
C[C@]12C=CC(=O)C=C1CC[C@@H]1[C@@H]2[C@@H](O)C[C@@]2(C)[C@H]1CC[C@]2(O)C(=O)CO [prednisolone, reference compound]	–	–	–	11375.9 ± 5238.4	6239.3 ± 5020.4
